Measurements from PMC9516332 (Frontiers in Oncology, 2022).
Read-outs that look alike come from different tables or passages of the source.

Key:
Experiment in all cases: Kinase panel profiling at 1 µmol/L (MSA or IMAP), percentage inhibition
Assay type in all cases: biochemical
[1] = biological target: panel of 255 wild-type kinases (Homo sapiens, UniProt P08922); conditions: read-out: %-inhibition at 1 µmol/L, ROS
[2] = biological target: panel of 255 wild-type kinases (Homo sapiens, UniProt Q13177); conditions: PAK2; 1 µmol/L single concentration; read-out: %-inhibition, PAK2
[3] = biological target: panel of 255 wild-type kinases (Homo sapiens, UniProt Q08345); conditions: kinase DDR1; 1 µmol/L single concentration; read-out: %-inhibition at 1 µmol/L, DDR1
[4] = biological target: panel of 255 wild-type kinases (Homo sapiens, UniProt Q8TDX7); conditions: NEK7; 1 µmol/L single concentration; read-out: %-inhibition, NEK7
[5] = biological target: panel of 255 wild-type kinases (Homo sapiens, UniProt P11802); conditions: CDK4/CycD3 kinase assay; 1 µmol/L single concentration; read-out: %-inhibition CDK4/CycD3
[6] = biological target: panel of 255 wild-type kinases (Homo sapiens, UniProt Q05655); conditions: kinase PKCδ; 1 µmol/L single concentration; read-out: %-inhibition at 1 µmol/L, PKCδ
[7] = biological target: T1, panel of 255 wild-type kinases (Homo sapiens, UniProt Q96L34); conditions: MARK4; 1 µmol/L single concentration; read-out: %-inhibition, MARK4
T1 sequence (Q96L34 1-752): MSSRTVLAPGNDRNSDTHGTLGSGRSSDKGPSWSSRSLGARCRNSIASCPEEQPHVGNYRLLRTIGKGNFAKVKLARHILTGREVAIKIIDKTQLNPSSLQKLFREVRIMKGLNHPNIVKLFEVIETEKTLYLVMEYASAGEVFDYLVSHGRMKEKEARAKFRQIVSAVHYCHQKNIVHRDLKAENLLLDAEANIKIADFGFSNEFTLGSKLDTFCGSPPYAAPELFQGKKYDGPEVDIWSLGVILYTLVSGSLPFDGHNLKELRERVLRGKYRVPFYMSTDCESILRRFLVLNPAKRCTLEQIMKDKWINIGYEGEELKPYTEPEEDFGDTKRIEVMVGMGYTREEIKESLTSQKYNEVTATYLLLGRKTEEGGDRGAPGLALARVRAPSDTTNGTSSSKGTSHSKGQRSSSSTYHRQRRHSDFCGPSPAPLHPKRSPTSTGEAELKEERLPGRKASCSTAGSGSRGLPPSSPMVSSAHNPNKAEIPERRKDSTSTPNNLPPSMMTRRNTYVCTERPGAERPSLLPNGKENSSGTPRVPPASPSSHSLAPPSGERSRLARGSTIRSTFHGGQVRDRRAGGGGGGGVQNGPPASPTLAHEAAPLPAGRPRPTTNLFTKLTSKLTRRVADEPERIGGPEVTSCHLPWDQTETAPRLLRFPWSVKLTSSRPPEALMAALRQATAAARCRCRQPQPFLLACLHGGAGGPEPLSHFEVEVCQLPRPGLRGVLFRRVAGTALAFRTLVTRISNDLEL

[8] = biological target: panel of 255 wild-type kinases (Homo sapiens, UniProt P41240); conditions: kinase CSK; 1 µmol/L single concentration; read-out: %-inhibition at 1 µmol/L, CSK
[9] = biological target: T2, panel of 255 wild-type kinases (Homo sapiens, UniProt Q02156); conditions: kinase PKCε; 1 µmol/L single concentration; read-out: %-inhibition at 1 µmol/L, PKCε
T2 sequence (Q02156 1-737): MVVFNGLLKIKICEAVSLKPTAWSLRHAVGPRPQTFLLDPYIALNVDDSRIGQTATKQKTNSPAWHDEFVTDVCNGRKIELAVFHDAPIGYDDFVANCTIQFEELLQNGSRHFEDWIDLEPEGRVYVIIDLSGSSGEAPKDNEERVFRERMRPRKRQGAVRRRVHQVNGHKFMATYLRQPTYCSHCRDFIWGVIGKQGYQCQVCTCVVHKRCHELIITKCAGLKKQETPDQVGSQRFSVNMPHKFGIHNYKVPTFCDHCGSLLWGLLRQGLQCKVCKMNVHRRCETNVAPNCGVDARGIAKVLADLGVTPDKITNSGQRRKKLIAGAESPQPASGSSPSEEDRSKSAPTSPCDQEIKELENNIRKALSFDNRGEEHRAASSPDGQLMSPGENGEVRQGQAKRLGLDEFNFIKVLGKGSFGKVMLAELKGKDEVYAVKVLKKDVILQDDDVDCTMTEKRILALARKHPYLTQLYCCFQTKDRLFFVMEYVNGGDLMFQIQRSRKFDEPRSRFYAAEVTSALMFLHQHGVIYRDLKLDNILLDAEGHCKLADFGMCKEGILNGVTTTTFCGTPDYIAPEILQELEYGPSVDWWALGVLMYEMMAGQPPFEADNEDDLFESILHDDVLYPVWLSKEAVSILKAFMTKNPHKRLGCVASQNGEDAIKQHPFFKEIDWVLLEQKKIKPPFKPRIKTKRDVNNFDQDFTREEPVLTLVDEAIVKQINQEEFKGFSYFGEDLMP

[10] = biological target: panel of 255 wild-type kinases (Homo sapiens, UniProt P06239); conditions: read-out: %-inhibition at 1 µmol/L, LCK
[11] = kinase ROS, 1 µmol/L single concentration
[12] = kinase LCK, 1 µmol/L single concentration

SMILES	inhibition at 1 µM [1, 11] [%]	inhibition at 1 µM [2] [%]	inhibition at 1 µM [3] [%]	inhibition at 1 µM [4] [%]	inhibition at 1 µM [5] [%]	inhibition at 1 µM [6] [%]	inhibition at 1 µM [7] [%]	inhibition at 1 µM [8] [%]	inhibition at 1 µM [9] [%]	inhibition at 1 µM [10, 12] [%]	inhibition at 1 µM [1] [%]	inhibition at 1 µM [10] [%]
CO[C@]1(C(=O)N[C@@H](C)c2ccc(-n3cc(F)cn3)nc2)CC[C@H](c2nc(C)cc(Nc3cc(C)[nH]n3)n2)CC1 [pralsetinib]	94	16	98	-3	-1	-3	-9	0.35	0.425	98	–	–
COc1cc2ncnc(Nc3ccc(F)c(Cl)c3)c2cc1NC(=O)/C=C/CN1CCCCC1 [dacomitinib]	22	2.5	101	-4.37	-0.81	9	4.31	18	8	93	–	–
CCn1c(=O)c(-c2cc(NC(=O)Nc3ccccc3)c(F)cc2Br)cc2cnc(NC)cc21 [ripretinib]	3.79	4.69	90	-7	-1.19	54	-2.13	50	6	99	–	–
Cc1nc(NC(=O)N2CCC[C@H]2C(N)=O)sc1-c1ccnc(C(C)(C)C(F)(F)F)c1 [alpelisib]	-6	-7	3.8	0.399	-10	-7.56	0.414	-0.289	15	5	–	–
C=CC(=O)N1CCC([C@@H]2CCNc3c(C(N)=O)c(-c4ccc(Oc5ccccc5)cc4)nn32)CC1 [zanubrutinib]	1.9	10	3	2	-1.7	-6	-7.42	–	8	67	–	–
O=C(Nc1cnn2ccc(N3CCC[C@@H]3c3cc(F)ccc3F)nc12)N1CC[C@H](O)C1 [larotrectinib]	–	-10	41	0.263	-0.745	-5	-6.42	-5	8	1.14	86	–
Cc1cc(Nc2ncnc3ccc(NC4=NC(C)(C)CO4)cc23)ccc1Oc1ccn2ncnc2c1 [tucatinib]	21	-1.88	9	-5.58	-2	2.67	-0.473	6	-0.0549	–	–	20
FC(F)(F)c1ccc(CNc2ccc(Cc3c[nH]c4ncc(Cl)cc34)cn2)cn1 [pexidartinib]	37	-2.4	84	-2.52	-1.58	6.48	17	9	1.26	51	–	–
Cn1cnc2c(F)c(Nc3ccc(Br)cc3F)c(C(=O)NOCCO)cc21 [binimetinib]	16	12	-0.162	2	3.25	-9	-4	-1.11	11	-0.655	–	–
CN1CCN(c2ccc(C(=O)Nc3n[nH]c4ccc(Cc5cc(F)cc(F)c5)cc34)c(NC3CCOCC3)c2)CC1 [entrectinib]	–	-10	99	-1.81	-7.43	8	15	8	27	–	–	–
COC(=O)N[C@@H](C)CNc1nccc(-c2cn(C(C)C)nc2-c2cc(Cl)cc(NS(C)(=O)=O)c2F)n1 [encorafenib]	14	9.49	0.442	5	10	-2.67	2.32	1.58	-7	1.39	–	–
C[C@H]1Oc2cc(cnc2N)-c2c(nn(C)c2C#N)CN(C)C(=O)c2ccc(F)cc21 [lorlatinib]	101	11	–	1.44	-7	5	18	1.12	10	24	–	–
CCN1CCN(c2ccc(Nc3cc(N(C)C(=O)Nc4c(Cl)c(OC)cc(OC)c4Cl)ncn3)cc2)CC1 [infigratinib]	29	1.66	96	-3.65	66	-3	-3	2.24	4.68	91	–	–
COc1ccc(CN2C3CC2CN(c2ccc(-c4cc(OCC(C)(C)O)cn5ncc(C#N)c45)cn2)C3)cn1 [selpercatinib]	64	5	89	1	0.921	-2	25	1.77	7	77	–	–
Cn1cc(-c2cc3c(N4CCN(c5ncc([C@@](C)(N)c6ccc(F)cc6)cn5)CC4)ncnn3c2)cn1 [avapritinib]	67	-4.42	–	-11	9	5	-5.63	2.57	-2.54	92	–	–
